Experimental data taken from patent publication US6706880B2 (Research Triangle Institute, priority 1990, dated 2004).
Counter-ions that a name gives are not always drawn. Like-named read-outs stand apart in the source and are kept apart here.

Columns and labels:
dopamine transporter [1] = biological target: dopamine transporter (UniProt P23977); format: binding
From the text: (§1) Illustrative in vitro assays for binding are described in Boja et al Ann. NY Acad. Sci. 654:282-291 (1992), which is incorporated herein by reference in its entirety. […] Alternatively, the compounds may be analyzed by their ability to inhibit reuptake of a labelled neurotransmitter in a sample, in particular, in synaptosomes.

dopamine transporter [2] = format: binding; conditions: ratio of IC50 values, Table II
From the text: as §1

serotonin transporter = biological target: T1, serotonin transporter (Rattus norvegicus, UniProt P31652); test: Inhibition of [3H]paroxetine radioligand binding at the serotonin transporter
T1 construct: from tissue
From the text: as §1

[3] = biological target: norepinephrine transporter (UniProt Q9WTR4); test: Inhibition of [3H]nisoxetine radioligand binding at the norepinephrine transporter
From the text: as §1

[4] = read-out: DA IC50 for inhibition of radioligand binding, DA=[3H]WIN 35,428
[5] = read-out: IC50 DA [3H]-WIN 35,428, Table II
[6] = 5-HT IC50 for inhibition of radioligand binding, 5-HT=[3H] paroxetine
[7] = IC50 5-HT [3H]-paroxatine, Table II
[8] = read-out: IC50 NE [3H]-nisoxetine, Table II
[9] = read-out: NEN IC50 for inhibition of radioligand binding, NEN=[3H] nisoxetine
[10] = 5-HT=[3H] paroxetine, read-out: 5-HT IC50 for inhibition of radioligand binding
[11] = read-out: IC50 DA [3H]-WIN 35,428, Table IV
[12] = IC50 5-HT [3H]-paroxetine, Table IV
[13] = read-out: IC50 NE [3H]-nisoxetine, Table IV

T1 sequence (P31652 whole entry): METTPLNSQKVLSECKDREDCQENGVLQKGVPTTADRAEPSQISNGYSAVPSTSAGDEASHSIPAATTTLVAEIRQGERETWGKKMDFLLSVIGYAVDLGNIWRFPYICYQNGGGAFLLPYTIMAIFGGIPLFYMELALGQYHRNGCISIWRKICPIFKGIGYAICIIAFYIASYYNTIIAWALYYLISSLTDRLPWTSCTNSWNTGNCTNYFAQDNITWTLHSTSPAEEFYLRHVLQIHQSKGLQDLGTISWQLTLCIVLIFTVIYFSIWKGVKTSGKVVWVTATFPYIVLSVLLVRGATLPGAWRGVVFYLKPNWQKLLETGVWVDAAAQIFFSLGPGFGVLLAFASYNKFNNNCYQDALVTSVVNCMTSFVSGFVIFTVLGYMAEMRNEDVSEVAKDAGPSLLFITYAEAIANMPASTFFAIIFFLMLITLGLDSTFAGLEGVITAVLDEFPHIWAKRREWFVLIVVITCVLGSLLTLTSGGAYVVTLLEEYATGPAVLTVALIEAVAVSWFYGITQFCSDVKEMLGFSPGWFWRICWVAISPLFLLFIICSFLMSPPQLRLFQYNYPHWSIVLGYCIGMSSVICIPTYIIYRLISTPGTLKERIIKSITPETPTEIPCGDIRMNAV

SMILES | IC50 (dopamine transporter [1]; [4]) [nM] | IC50 (serotonin transporter; [6]) [nM] | IC50 [3, 9] [nM] | other results
CN1[C@H]2CC[C@@H]1[C@@H](c1cc(-c3ccccc3)no1)[C@@H](c1ccc(I)cc1)C2 [RTI-4229-181, 3β-(4-Iodophenyl)-2β-(3-phenylisoxazol-5-yl)tropane Hydrochloride] | 2.57 | 100 | 868 | IC50 (dopamine transporter [1]; [5]): 2.57 nM; 5-HT/DA Ratio (dopamine transporter [2]): 39; NE/DA Ratio (dopamine transporter [2]): 337; IC50 (serotonin transporter; [7]): 100 nM; IC50 [3, 8]: 868 nM
Cc1ccc([C@H]2C[C@@H]3CC[C@H]([C@H]2c2ncc(-c4ccccc4)o2)N3C)cc1 [RTI-4229-178, 3β-(4-Methylphenyl)-2β-(5-phenyl-oxazol-2-yl)-tropane Tartrate] | 35.4 | 1700 | 677 | IC50 (dopamine transporter [1]; [5]): 35.4 nM; 5-HT/DA Ratio (dopamine transporter [2]): 48; NE/DA Ratio (dopamine transporter [2]): 19; IC50 (serotonin transporter; [7]): 1700 nM; IC50 [3, 8]: 677 nM
CN1C2CCC1[C@@H](c1cc(-c3ccc(F)cc3)no1)[C@@H](c1ccc(Cl)cc1)C2 (stereo partly shown) [RTI-4229-347] | 1.86 | 7260 | 918 | –
COC(=O)[C@@H]1C2CCC(C[C@@H]1c1ccc(N)c(Br)c1)N2C (stereo partly shown) [RTI-4229-97] | 3.91 | 181 | 282 | –
CC(C)c1cc([C@@H]2C3CCC(C[C@@H]2c2ccc(Cl)cc2)N3C)on1 (stereo partly shown) [RTI-4229-335] | 1.19 | 2320 | 954 | –
Cc1ccc(C2CC3CCC(C2c2ccccc2)N3C)cc1 (stereo not shown) [RTI-4229-422] | 1.96 | 1100 | 6090 | –
CCc1ccc(C2CC3CCC(C2C(=O)OC)N3C)cc1 (stereo not shown) [RTI-4229-287] | 325 | 1690 | 17800 | –
Cc1cc([C@H]2[C@@H](c3ccc(Cl)cc3)C[C@@H]3CC[C@H]2N3C)on1 [RTI-165, 3β-(4-Chlorophenyl)-2β-(3-methylisoxazol-5-yl)tropane Hydrochloride] | – | – | – | IC50 (dopamine transporter [1]; [5]): 0.59 ± 0.04 nM; IC50 (serotonin transporter; [7]): 572 ± 58 nM; IC50 [3, 8]: 181 ± 12 nM
COC(=O)[C@@H]1C2CCC(C[C@@H]1c1ccc(I)cc1)N2 (stereo partly shown) [RTI-4229-98] | 0.69 | 0.36 | 11 | –
CN1C2CCC1C(c1nc(-c3ccc(Br)cc3)no1)C(c1ccc(Cl)cc1)C2 (stereo not shown) [RTI-4229-144] | 3.44 | 106 | 1820 | –
CN1C2CCC1C(C(=O)N1CCCCOCC1)C(c1ccc(Cl)cc1)C2 (stereo not shown) [RTI-4229-214] | 2.9 | 88800 | 8550 | –
Cc1noc([C@@H]2C3CCC(C[C@H]2c2ccccc2)N3C)n1 (stereo partly shown) [RTI-4229-119] | 167 | 40600 | 6990 | –
COC(=O)CCN1C2CCC1C(C(=O)OC)C(c1ccc(Cl)cc1)C2 (stereo not shown) [RTI-4229-252] | 2.56 | 35.2 | 125 | –
Cc1ccc(-c2cc([C@@H]3C4CCC(C[C@@H]3c3ccc(Cl)cc3)N4C)on2)cc1 (stereo partly shown) [RTI-4229-336] | 4.09 | 5740 | 1710 | –
Cc1ccccc1OC(=O)C1C(c2ccc(Cl)cc2)CC2CCC1N2C (stereo not shown) [RTI-4229-204] | 3.91 | – | 4780 | IC50 (serotonin transporter; [10]): 3770 nM
CN1C2CCC1[C@@H](CCl)[C@@H](c1ccc(Cl)cc1)C2 (stereo partly shown) [RTI-4229-108] | 2.64 | 98 | 129 | IC50 (dopamine transporter [1]; [11]): 2.64 ± 0.31 nM; IC50 (serotonin transporter; [12]): 98 ± 8.7 nM; IC50 [3, 13]: 129 ± 15 nM
COC(=O)C1C2CCC(CC1c1ccc(F)cc1)N2 (stereo not shown) [RTI-4229-142] | 4.39 | – | 18.8 | IC50 (serotonin transporter; [10]): 68.6 nM
CN1C2CCC1C(COc1ccc(I)cc1)C(c1ccc(Cl)cc1)C2 (stereo not shown) [RTI-4229-116] | 33 | 1230 | 968 | –
CN1C2CCC1C(C(=O)N1CCCC1)C(c1ccc(Cl)cc1)C2 (stereo not shown) [RTI-4229-147] | 1.38 | 12400 | 3950 | –
Cc1ccc(C2CC3CCC(C2C(=O)OC(C)C)N3C)cc1 (stereo not shown) [RTI-4229-117] | 6.45 | – | 1930 | IC50 (serotonin transporter; [10]): 6090 nM
Cc1noc(C2C(c3ccccc3)CC3CCC2N3C)n1 (stereo not shown) [RTI-4229-87] | 204 | 28400 | 35800 | –
CCC#Cc1ccc(C2CC3CCC(N3)C2C(=O)OC)cc1 (stereo not shown) [RTI-4229-307] | 6.11 | 3.16 | 116 | –
COc1ccc(-c2noc(C3C(c4ccc(Cl)cc4)CC4CCC3N4C)n2)cc1 (stereo not shown) [RTI-4229-141] | 1.81 | 337 | 835 | –
CC(=O)OC[C@@H]1C2CCC(C[C@@H]1c1ccc(Cl)cc1)N2C (stereo partly shown) [RTI-4229-105] | 1.6 | 143 | 127 | IC50 (dopamine transporter [1]; [11]): 1.8 ± 0.05 nM; IC50 (serotonin transporter; [12]): 143 ± 25 nM; IC50 [3, 13]: 127 ± 5.9 nM
